Test results reported in patent publication US20090068290A1, “BIFEPRUNOX DOSES FOR TREATING SCHIZOPHRENIA” (priority 2006, published 2009).

What was measured:
[1] = Clinical laboratory assessments (prolactin), Clinical Study Three; conditions: olanzapine 15 mg; 6 weeks
Text: To assess the safety and tolerability of bifeprunox using physical examination, weight, waist circumference, vital signs (pulse rate and systolic/diastolic blood pressure [BP], and oral temperature), 12-lead electrocardiogram (ECG), clinical laboratory assessments (hematology, biochemistry including fasting insulin level, fasting glucose, fasting lipid profile, urinalysis, special laboratory assessments for prolactin, IGF-1, IGFBP-3, and thyroid function), need for anticholinergic treatment during double-blind treatment period, concomitant medication use, adverse event (AE) monitoring, and assessments of abnormal movement including the Simpson-Angus Scale (SAS), Barnes Akathisia Scale (BAS), and Abnormal Involuntary Movement Scale (AIMS).

[2] = test system: adult subjects with schizophrenia; experiment: PANSS total score, Clinical Study One (6-week, risperidone-referenced); format: in vivo, human; conditions: for Change from Baseline in PANSS Total Score, Median / Change from Baseline in PANSS Total Score, Mean (S.D.): Risperidone 6 mg, ITT
Protocol: (§1) There were five treatment groups in this study. […] Study medication was administered once daily. After Baseline measurements were performed, the titration phase was begun. Bifeprunox treated subjects were titrated up to 5 mg, 10 mg or 20 mg according to a standardized titration schedule (Day 1: 0.125 mg, Day 2: 0.25 mg, Day 3: 0.5 mg, Day 4: 1.0 mg, Day 5: 2.0 mg, Day 6: 5.0 mg, Day 7: 10.0 mg, Day 8: 20 mg). When the assigned dose was reached, subjects were maintained at that dose for the remainder of the six-week treatment period.
Test Product. Dose and Mode of Administration: Bifeprunox tablets, total daily dose 0.125 mg to 20 mg administered orally using a once daily dosing regimen.
(§2) The change in the Positive and Negative Symptom Scale (PANSS) total score, from baseline to endpoint, was the primary outcome measure. Secondary efficacy measures included: PANSS positive, PANSS negative, PANSS general psychopathology (GPP) score, PANSS-derived Brief Psychiatric Rating Scale (BPRS) score, Clinical Global Impressions-Severity of Illness (CGI-S), CGI-Improvement (CGI-I) scores, and responder rates. Safety and tolerability evaluations included extrapyramidal symptoms (EPS), weight gain, lipid profile, and serum prolactin.

[3] = test system: adult subjects with schizophrenia; experiment: CGI Improvement score, Clinical Study Two; format: in vivo, human; conditions: 6 mg, LOCF
Protocol: (§3) Rating scale assessments were performed weekly, except for week 5, to measure the change from baseline to endpoint of the PANSS total score. Other assessments included: PANSS positive symptom subscale score, PANSS negative symptom subscale score, PANSS general pschopathology subscale score, BPRS total score, BPRS psychosis score, the CGI-S score, the CGI-I score, responder rates based on the PANSS total score, and the Calgary Depression Scale for Schizophrenia (CDSS). […]
(§4) Subjects who completed this study had the option to continue in the long-term. […] Risperidone-treated subjects were titrated from 2 mg to 6 mg daily over a three-day period and were subsequently maintained at 6 mg/day for the remainder of the treatment period. […] Blood samples were also obtained at Screening/Baseline, Week 3, and Week 6 for clinical laboratory assessments.

[4] = test system: adult subjects with schizophrenia; experiment: CGI responder rate, Clinical Study One; format: in vivo, human; conditions: 6 mg
Protocol: as §1
CLINICAL STUDY ONE: A CGI responder is defined as a subject who is categorized as “very much improved” or “much improved” on the CGI Improvement scale.

[5] = test system: adult subjects with schizophrenia; experiment: BPRS psychosis cluster score, Clinical Study Two; format: in vivo, human; conditions: LOCF; for Change from Baseline in BPRS Psychosis Cluster Score, Mean (SD) / Change from Baseline in BPRS Psychosis Cluster Score, Median: Risperidone 6 mg, ITT population
Protocol: as §3, §4

[6] = test system: adult subjects with schizophrenia; experiment: BPRS total score, Clinical Study One; format: in vivo, human; conditions: Risperidone 6 mg, ITT population
Protocol: as §1, §2

**Q.** Which prolactin [1] does the source give for Cc1cc2c(s1)Nc1ccccc1N=C2N1CCN(C)CC1 [Olanzapine, olanzapine, reference compound] here?
**A.** increases in prolactin

**Q.** For Cc1nc2n(c(=O)c1CCN1CCC(c3noc4cc(F)ccc34)CC1)CCCC2 [Risperidone, risperidone, reference compound], which “Change from Baseline in PANSS Total Score, Median” value ([2]; Endpoint LOCF) is on record?
**A.** −14

**Q.** What about the “Change from Baseline in PANSS Total Score, Mean (S.D.)” value ([2]; Week 1, LOCF) of the same compound?
**A.** −8.2 (11.1)

**Q.** And the “Change from Baseline in PANSS Total Score, Median” value ([2]; Week 1, LOCF)?
**A.** −7

**Q.** And the “Change from Baseline in PANSS Total Score, Mean (S.D.)” value ([2]; Week 2, LOCF)?
**A.** −13.1 (13.9)

**Q.** And the “Change from Baseline in PANSS Total Score, Median” value ([2]; Week 2, LOCF)?
**A.** −12

**Q.** What about the “Change from Baseline in PANSS Total Score, Mean (S.D.)” value ([2]; Week 3, LOCF) of the same compound?
**A.** −15.3 (14.1)

**Q.** What about the “Change from Baseline in PANSS Total Score, Median” value ([2]; Week 3, LOCF) of the same compound?
**A.** −13

**Q.** What about the “Change from Baseline in PANSS Total Score, Mean (S.D.)” value ([2]; Week 4, LOCF) of the same compound?
**A.** −14.4 (14.5)

**Q.** And the “Change from Baseline in PANSS Total Score, Median” value ([2]; Week 4, LOCF)?
**A.** −13

**Q.** And the “all efficacy measures at endpoint compared to placebo” value ([2]; risperidone 6 mg (Example 4))?
**A.** statistically significant at endpoint compared to placebo for all efficacy measures

**Q.** And the “separation of active reference from placebo” value ([2]; risperidone 6 mg, 6 weeks)?
**A.** showed clear separation from the placebo group

**Q.** And the “CGI Improvement Minimally Improved, %” value ([3]; Week 2)?
**A.** (40%)

**Q.** What about the “CGI Improvement Minimally Worse, %” value ([3]; Week 2) of the same compound?
**A.** (5%)

**Q.** What about the “CGI Improvement Much Improved, %” value ([3]; Week 2) of the same compound?
**A.** (30%)

**Q.** What about the “CGI Improvement Much Worse, %” value ([3]; Week 2) of the same compound?
**A.** (3%)

**Q.** What about the “CGI Improvement No Change, %” value ([3]; Week 2) of the same compound?
**A.** (16%)

**Q.** And the “CGI Improvement Very Much Improved, %” value ([3]; Week 2)?
**A.** (5%)

**Q.** And the “CGI Improvement Minimally Improved, %” value ([3]; Week 3)?
**A.** (33%)

**Q.** What about the “CGI Improvement Minimally Worse, %” value ([3]; Week 3) of the same compound?
**A.** (5%)

**Q.** What about the “CGI Improvement Much Improved, %” value ([3]; Week 3) of the same compound?
**A.** (36%)

**Q.** And the “CGI Improvement Much Worse, %” value ([3]; Week 3)?
**A.** (5%)

**Q.** What about the “CGI Improvement No Change, %” value ([3]; Week 3) of the same compound?
**A.** (13%)

**Q.** And the “CGI Improvement Very Much Improved, %” value ([3]; Week 3)?
**A.** (9%)

**Q.** What about the “CGI Improvement Minimally Improved, %” value ([3]; Week 4) of the same compound?
**A.** (25%)

**Q.** And the “CGI Improvement Minimally Worse, %” value ([3]; Week 4)?
**A.** (5%)

**Q.** And the “CGI Improvement Much Improved, %” value ([3]; Week 4)?
**A.** (38%)

**Q.** And the “CGI Improvement Much Worse, %” value ([3]; Week 4)?
**A.** (5%)

**Q.** What about the “CGI Improvement No Change, %” value ([3]; Week 4) of the same compound?
**A.** (14%)

**Q.** And the “CGI Improvement Very Much Improved, %” value ([3]; Week 4)?
**A.** (13%)

**Q.** What about the “CGI Improvement Minimally Improved, %” value ([3]; Week 6/Endpoint) of the same compound?
**A.** (23%)

**Q.** What about the “CGI Improvement Minimally Worse, %” value ([3]; Week 6/Endpoint) of the same compound?
**A.** (5%)

**Q.** And the “CGI Improvement Much Improved, %” value ([3]; Week 6/Endpoint)?
**A.** (36%)

**Q.** And the “CGI Improvement Much Worse, %” value ([3]; Week 6/Endpoint)?
**A.** (5%)

**Q.** And the “CGI Improvement No Change, %” value ([3]; Week 6/Endpoint)?
**A.** (15%)

**Q.** And the “CGI Improvement Very Much Improved, %” value ([3]; Week 6/Endpoint)?
**A.** (16%)

**Q.** What about the “CGI Improvement Very Much Worse, %” value ([3]; Week 6/Endpoint) of the same compound?
**A.** (<1%)

**Q.** What about the “CGI Responder at Endpoint (LOCF), %” value [4] of the same compound?
**A.** 36%

**Q.** What about the “Change from Baseline in BPRS Psychosis Cluster Score, Mean (SD)” value (from here on “Change from Baseline … (SD)”) ([5]; Week 1) of the same compound?
**A.** −2.3 (2.4)

**Q.** And the “Change from Baseline in BPRS Psychosis Cluster Score, Median” value ([5]; Week 1)?
**A.** −2

**Q.** What about the “Change from Baseline … (SD)” value ([5]; Week 2) of the same compound?
**A.** −3.6 (3.0)

**Q.** What about the “Change from Baseline in BPRS Psychosis Cluster Score, Median” value ([5]; Week 2) of the same compound?
**A.** −4

**Q.** What about the “Change from Baseline … (SD)” value ([5]; Week 3) of the same compound?
**A.** −4.3 (3.4)

**Q.** And the “Change from Baseline in BPRS Psychosis Cluster Score, Median” value ([5]; Week 3)?
**A.** −4

**Q.** What about the “Change from Baseline … (SD)” value ([5]; Week 4) of the same compound?
**A.** −4.7 (3.6)

**Q.** What about the “Change from Baseline in BPRS Psychosis Cluster Score, Median” value ([5]; Week 4) of the same compound?
**A.** −5

**Q.** And the “Change from Baseline … (SD)” value ([5]; Week 6/Endpoint)?
**A.** −4.9 (4.0)

**Q.** What about the “Change from Baseline in BPRS Psychosis Cluster Score, Median” value ([5]; Week 6/Endpoint) of the same compound?
**A.** −5

**Q.** What about the “mean change (SD) from Baseline to Endpoint in BPRS psychosis cluster score” value ([5]; risperidone 6 mg, ITT) of the same compound?
**A.** −4.9 (4.0)

**Q.** And the “Change from Baseline in BPRS Total Score, Mean (S.D.)” value ([6]; Endpoint LOCF)?
**A.** −9.2 (8.9)

**Q.** What about the “Change from Baseline in BPRS Total Score, Median” value ([6]; Endpoint LOCF) of the same compound?
**A.** −9

**Q.** And the “Change from Baseline in BPRS Total Score, Mean (S.D.)” value ([6]; Week 1, LOCF)?
**A.** −4.6 (6.5)

**Q.** And the “Change from Baseline in BPRS Total Score, Median” value ([6]; Week 1, LOCF)?
**A.** −3

**Q.** And the “Change from Baseline in BPRS Total Score, Mean (S.D.)” value ([6]; Week 2, LOCF)?
**A.** −7.6 (8.4)

**Q.** And the “Change from Baseline in BPRS Total Score, Median” value ([6]; Week 2, LOCF)?
**A.** −7

**Q.** And the “Change from Baseline in BPRS Total Score, Mean (S.D.)” value ([6]; Week 3, LOCF)?
**A.** −9.1 (8.4)

**Q.** What about the “Change from Baseline in BPRS Total Score, Median” value ([6]; Week 3, LOCF) of the same compound?
**A.** −9

**Q.** What about the “Change from Baseline in BPRS Total Score, Mean (S.D.)” value ([6]; Week 4, LOCF) of the same compound?
**A.** −8.6 (9.0)

**Q.** And the “Change from Baseline in BPRS Total Score, Median” value ([6]; Week 4, LOCF)?
**A.** −7
